Legend:
[1] = Elimination half-life in Sprague-Dawley rat at 5 mg/kg, po by LC-MS/MS analysis; assay type: ADME, organism-based; conditions: in vivo, read-out: beta t1/2 (converted)
[2] = biological target: Receptor-type tyrosine-protein kinase FLT3 (Homo sapiens, UniProt P36888, N841I); assay: Binding affinity to human partial length FLT3 N841I mutant (V592 to Y969 residues) expressed in Escherichia coli after 1 hr by qPCR analysis
[3] = system: MV4-11; assay: Inhibition of MAPK in human MV4-11 cells assessed as ratio of phosphorylated ERK to beta-actin level at 100 nM after 2 hrs by Western blot analysis relative to control; assay type: cell-based
[4] = biological target: Receptor-type tyrosine-protein kinase FLT3 (Homo sapiens) (UniProt P36888); assay: Inhibition of FLT3 autophosphorylation in human MOLM13 cells assessed as ratio of phosphorylated FLT3 to beta-actin level at 30 nM after 2 hrs by Western blot analysis relative to control; assay type: cell-based
[5] = species: Homo sapiens; assay: Inhibition of MAPK in human MOLM13 cells assessed as ratio of phosphorylated ERK to beta-actin level at 100 nM after 2 hrs by Western blot analysis relative to control; assay type: cell-based
[6] = system: MOLM-13; assay: Antitumour activity against human MOLM13 cells xenografted in po dosed NOD/SCID mouse assessed as tumour growth inhibition administered daily for 10 days; assay type: functional, organism-based
[7] = system: MV4-11; assay: Antitumour activity against human MV4-11 cells xenografted in NOD/SCID mouse assessed as tumour growth inhibition at 1 mg/kg, po qd for 14 days measured every two days during compound dosing by caliper method relative to control; assay type: functional; conditions: MV4-11, po, read-out: TGI
[8] = system: MV4-11; assay: Cell cycle arrest in human MV4-11 cells assessed as accumulation at G0/G1 phase at 3 nM after 24 hrs by propidium iodide staining-based flow cytometric analysis (reference value: 48.76%); assay type: functional
[9] = system: MV4-11; assay: Cell cycle arrest in human MV4-11 cells assessed as accumulation at G2/M phase at 10 nM after 24 hrs by propidium iodide staining-based flow cytometric analysis (reference value: 21.12%); assay type: functional
[10] = system: MV4-11; assay: Cell cycle arrest in human MV4-11 cells assessed as accumulation at S phase at 3 nM after 24 hrs by propidium iodide staining-based flow cytometric analysis (reference value: 30.12%); assay type: functional
[11] = system: MV4-11; assay: Cell cycle arrest in human MV4-11 cells assessed as accumulation at S phase at 10 nM after 24 hrs by propidium iodide staining-based flow cytometric analysis (reference value: 30.12%); assay type: functional
[12] = system: MOLM-13; assay: Induction of apoptosis in human MOLM13 cells assessed as early apoptotic cells at 1 nM after 48 hrs by Annexin V/propidium iodide staining based flow cytometry (reference value: 5.97%); assay type: functional
[13] = system: MOLM-13; assay: Induction of apoptosis in human MOLM13 cells assessed as necrotic cells at 1 nM after 48 hrs by Annexin V/propidium iodide staining based flow cytometry (reference value: 0.29%); assay type: functional
[14] = system: MV4-11; assay: Induction of apoptosis in human MV4-11 cells assessed as viable cells at 1 nM after 48 hrs by Annexin V/propidium iodide staining based flow cytometry (reference value: 94.4%); assay type: functional; conditions: MV4-11, 48 h, read-out: Activity
[15] = system: MV4-11; assay: Induction of apoptosis in human MV4-11 cells assessed as early apoptotic cells at 1 nM after 48 hrs by Annexin V/propidium iodide staining based flow cytometry (reference value: 2.76%); assay type: functional
[16] = system: MV4-11; assay: Induction of apoptosis in human MV4-11 cells assessed as late apoptotic cells at 1 nM after 48 hrs by Annexin V/propidium iodide staining based flow cytometry (reference value: 2.83%); assay type: functional
[17] = system: MV4-11; assay: Induction of apoptosis in human MV4-11 cells assessed as necrotic cells at 1 nM after 48 hrs by Annexin V/propidium iodide staining based flow cytometry (reference value: 0.06%); assay type: functional
[18] = biological target: Mast/stem cell growth factor receptor Kit (Homo sapiens, UniProt P10721); assay: Inhibition of recombinant human c-Kit (544 to end residues) using poly(Glu, Tyr) 4:1 as substrate measured after 40 mins in presence of [gamma-33P]-ATP by scintillation counting analysis
Mast/stem cell growth factor receptor Kit, sequence (P10721 whole entry): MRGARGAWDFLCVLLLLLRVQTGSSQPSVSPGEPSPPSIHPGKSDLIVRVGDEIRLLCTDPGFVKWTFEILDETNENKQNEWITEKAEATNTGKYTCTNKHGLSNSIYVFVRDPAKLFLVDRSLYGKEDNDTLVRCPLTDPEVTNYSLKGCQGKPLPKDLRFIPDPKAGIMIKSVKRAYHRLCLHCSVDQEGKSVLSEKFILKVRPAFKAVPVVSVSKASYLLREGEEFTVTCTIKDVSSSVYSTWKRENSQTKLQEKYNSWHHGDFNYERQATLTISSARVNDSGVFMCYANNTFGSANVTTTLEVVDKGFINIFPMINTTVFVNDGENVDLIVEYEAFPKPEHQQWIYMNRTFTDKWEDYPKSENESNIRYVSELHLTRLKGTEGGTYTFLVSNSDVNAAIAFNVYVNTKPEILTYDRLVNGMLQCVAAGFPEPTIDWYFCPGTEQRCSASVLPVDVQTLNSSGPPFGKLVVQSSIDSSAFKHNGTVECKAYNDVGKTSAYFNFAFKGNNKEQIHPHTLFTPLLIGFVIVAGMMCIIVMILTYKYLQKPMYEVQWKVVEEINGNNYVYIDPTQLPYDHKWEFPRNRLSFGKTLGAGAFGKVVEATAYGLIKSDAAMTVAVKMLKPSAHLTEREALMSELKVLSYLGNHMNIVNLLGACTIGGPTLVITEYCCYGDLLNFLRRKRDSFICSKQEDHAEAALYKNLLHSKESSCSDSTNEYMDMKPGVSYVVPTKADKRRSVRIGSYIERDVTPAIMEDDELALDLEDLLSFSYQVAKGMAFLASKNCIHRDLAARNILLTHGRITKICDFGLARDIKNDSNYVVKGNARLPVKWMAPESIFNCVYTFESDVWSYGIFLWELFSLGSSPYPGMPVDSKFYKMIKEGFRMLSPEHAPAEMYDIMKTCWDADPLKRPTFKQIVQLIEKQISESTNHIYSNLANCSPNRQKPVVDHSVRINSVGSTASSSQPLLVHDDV

[19] = system: MOLM-13; assay: Cell cycle arrest in human MOLM13 cells assessed as accumulation at G0/G1 phase at 30 nM after 24 hrs by propidium iodide staining-based flow cytometric analysis (reference value: 44.53%); assay type: functional
[20] = system: MV4-11; assay: Cell cycle arrest in human MV4-11 cells assessed as accumulation at G2/M phase at 30 nM after 24 hrs by propidium iodide staining-based flow cytometric analysis (reference value: 21.12%); assay type: functional
[21] = system: MOLM-13; assay: Induction of apoptosis in human MOLM13 cells after 48 hrs by Annexin V/propidium iodide staining-based flow cytometry; assay type: functional, cell-based
[22] = system: MOLM-13; assay: Induction of apoptosis in human MOLM13 cells assessed as late apoptotic cells at 100 nM after 48 hrs by Annexin V/propidium iodide staining based flow cytometry (reference value: 5.52%); assay type: functional
[23] = system: MOLM-13; assay: Induction of apoptosis in human MOLM13 cells assessed as necrotic cells at 100 nM after 48 hrs by Annexin V/propidium iodide staining based flow cytometry (reference value: 0.29%); assay type: functional
[24] = system: MOLM-13; assay: Induction of apoptosis in human MOLM13 cells assessed as necrotic cells at 10 uM after 48 hrs by Annexin V/propidium iodide staining based flow cytometry (reference value: 0.29%); assay type: functional
[25] = system: MV4-11; assay: Induction of apoptosis in human MV4-11 cells assessed as viable cells at 10 nM after 48 hrs by Annexin V/propidium iodide staining based flow cytometry (reference value: 94.4%); assay type: functional; conditions: MV4-11, 48 h, read-out: Activity
[26] = system: MV4-11; assay: Induction of apoptosis in human MV4-11 cells assessed as early apoptotic cells at 10 nM after 48 hrs by Annexin V/propidium iodide staining based flow cytometry (reference value: 2.76%); assay type: functional
[27] = system: MV4-11; assay: Induction of apoptosis in human MV4-11 cells assessed as late apoptotic cells at 10 nM after 48 hrs by Annexin V/propidium iodide staining based flow cytometry (reference value: 2.83%); assay type: functional
[28] = system: MV4-11; assay: Induction of apoptosis in human MV4-11 cells assessed as necrotic cells at 10 nM after 48 hrs by Annexin V/propidium iodide staining based flow cytometry (reference value: 0.06%); assay type: functional
[29] = system: MV4-11; assay: Induction of apoptosis in human MV4-11 cells assessed as early apoptotic cells at 100 nM after 48 hrs by Annexin V/propidium iodide staining based flow cytometry (reference value: 2.76%); assay type: functional
[30] = system: MV4-11; assay: Induction of apoptosis in human MV4-11 cells assessed as late apoptotic cells at 100 nM after 48 hrs by Annexin V/propidium iodide staining based flow cytometry (reference value: 2.83%); assay type: functional
[31] = system: MV4-11; assay: Induction of apoptosis in human MV4-11 cells assessed as necrotic cells at 100 nM after 48 hrs by Annexin V/propidium iodide staining based flow cytometry (reference value: 0.06%); assay type: functional
[32] = Toxicity in NOD/SCID mouse xenografted with human MOLM13 cells at 1 to 10 mg/kg, po qd for 10 days; assay type: organism-based; conditions: in vivo, 240 h
[33] = system: MV4-11; assay: cells; conditions: Homo sapiens, MV4-11, 72 h
Description: Antiproliferative activity against human MV4-11 cells harboring FLT3-ITD mutant measured after 72 hrs by MTT assay

[34] = system: MOLM-13; assay: cells; conditions: Homo sapiens, MOLM-13, 72 h
Description: Antiproliferative activity against human MOLM13 cells harboring FLT3-ITD mutant measured after 72 hrs by MTT assay

C=CCn1cc(-c2ccc(NC(=O)Nc3cc(C(C)(C)C)on3)cc2)c2c(N)ncnc21
half-life [1]: 2.06 h
Kd [2]: 2.37 nM
fold change (FC) [3]: 0
fold change (FC) [4]: 0
fold change (FC) [5]: 0.12
TGI [6]: Dose-dependent effect
inhibition in vivo at 1 mg/kg [7]: 70.5%
Activity [8]: 87.11%
Activity [9]: 2.2%
Activity [10]: 8.81%
Activity [11]: 2.06%
Activity [12]: 5.67%
Activity [13]: 0.76%
viability at 0.001 µM [14]: 92.7%
Activity [15]: 2.56%
Activity [16]: 4.62%
Activity [17]: 0.13%
IC50 [18]: > 300 nM
Activity [19]: 94.68%
Activity [20]: 1.79%
Activity [21]: Dose-dependent effect
Activity [22]: 21.5%
Activity [23]: 0.19%
Activity [24]: 0.4%
viability at 0.01 µM [25]: 79.3%
Activity [26]: 9.57%
Activity [27]: 11%
Activity [28]: 0.2%
Activity [29]: 11.3%
Activity [30]: 12.7%
Activity [31]: 0.36%
Activity [32]: Non-Toxic
IC50 [33]: 0.089 nM
IC50 [34]: 0.022 nM

— ChEMBL document CHEMBL4385604, “Identification of Pyrrolo[2,3- d]pyrimidine-Based Derivatives as Potent and Orally Effective Fms-like Tyrosine Receptor Kinase 3 (FLT3) Inhibitors for Treating Acute Myelogenous Leukemia” (J Med Chem, 2019)
